Test results reported in patent publication US6737383B1, “Herbicidal oxadiazolidines” (priority 1999, dated 2004).

Tests used:
rice = experiment: Test B flood test rice; assay type: in vivo, Oryza sativa; details: for Plant response rating, Rice (0 to 10 scale, 0 is no effect, 10 is complete control) / Rice plant response rating (0 to 10 scale, 0 is no effect, 10 is complete control): visual evaluation after twelve to sixteen days; for Rice plant response rating (0 to 10 scale, 0 is no effect, 10 is complete control): under heading Pre-emergence
Summary of the method: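 Read-out is a visual response score from 0 (no effect) to 10 (complete control), assigned by comparison with untreated controls. Treatment was applied at the 2-leaf stage, and plants stayed in the greenhouse for twelve to sixteen days before scoring.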

crabgrass = experiment: Test B pre/postemergence crabgrass; assay type: in vivo, Digitaria sanguinalis
Summary of the method: (§1)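 Response is a visual 0-to-10 score relative to untreated plants, where 0 means no effect and 10 means complete control, taken twelve to sixteen days after application. Treatments went onto soil at planting and onto foliage of 1- to 4-leaf plants, using a surfactant-containing non-phytotoxic solvent.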

wheat = experiment: Test B pre/postemergence wheat; assay type: in vivo, Triticum aestivum
Summary of the method: as §1

wild oat = experiment: Test B pre/postemergence wild oat; assay type: in vivo, Avena fatua
Summary of the method: as §1

[1] = Rate 62 g/ha, flood test species, Pre-emergence
[2] = Rate 125 g/ha, flood test species
[3] = Postemergence, Rate 125 g/ha, scale 0 to 10, 0 is no effect, 10 is complete control
[4] = Postemergence, Rate 250 g/ha, scale 0 to 10, 0 is no effect, 10 is complete control
[5] = Preemergence, Rate 62 g/ha, scale 0 to 10 (0 no effect, 10 complete control)
[6] = Preemergence, Rate 250 g/ha, scale of 0 to 10 where 0 is no effect and 10 is complete control
[7] = Preemergence, Rate 500 g/ha, scale of 0 to 10 where 0 is no effect and 10 is complete control
[8] = Rate 62 g/ha, Postemergence, scale of 0 to 10 where 0 is no effect and 10 is complete control
[9] = Rate 500 g/ha, Postemergence, scale 0 to 10, 0 no effect, 10 complete control
[10] = Postemergence, Rate 62 g/ha, scale 0 to 10, 0 is no effect, 10 is complete control
[11] = Postemergence, Rate 250 g/ha, scale 0 to 10, 0 no effect, 10 complete control
[12] = Preemergence, Rate 125 g/ha, scale 0 to 10 (0 no effect, 10 complete control)
[13] = Preemergence, Rate 500 g/ha, scale 0 (no effect) to 10 (complete control)
[14] = Rate 125 g/ha, Postemergence, scale 0 to 10, 0 no effect, 10 complete control
[15] = Postemergence, Rate 125 g/ha, scale of 0 to 10 where 0 is no effect and 10 is complete control
[16] = Postemergence, Rate 250 g/ha, scale of 0 to 10, 0 is no effect, 10 is complete control
[17] = Postemergence, Rate 500 g/ha, scale of 0 to 10 where 0 is no effect and 10 is complete control
[18] = Preemergence, Rate 125 g/ha, scale of 0 to 10 where 0 is no effect and 10 is complete control
[19] = Preemergence, Rate 125 g/ha, 0 is no effect, 10 is complete control
[20] = Preemergence, Rate 250 g/ha, scale 0 to 10, 0 is no effect, 10 is complete control
[21] = Preemergence, Rate 500 g/ha, scale 0 to 10 (0 no effect, 10 complete control)
[22] = Rate 250 g/ha, Postemergence, scale 0 to 10, 0 is no effect, 10 is complete control
[23] = Rate 500 g/ha, Postemergence, scale 0 to 10

In the case of `CC(C)N(C(=O)n1oc(=O)n(N2C(C)CCCC2C)c1=O)c1ccc(F)cc1` (stereo not shown) [Compound 382], the “Plant response rating, Rice (0 to 10 scale, 0 is no effect, 10 is complete control)” value (rice; [1]) was 0, the “Rice plant response rating (0 to 10 scale, 0 is no effect, 10 is complete control)” value (rice; [2]) was 0 and the “Rice plant response rating” value (rice; Rate 250 g/ha, Pre-emergence, flood-test species, scale 0 to 10, 0 is no effect, 10 is complete control) was 0. For the same compound, the “Rice plant response rating” value (rice; Rate 500 g/ha, Pre-emergence, flood test species, scale 0 to 10 (0 no effect, 10 complete control)) was 0, the “Plant response rating, Crabgrass” value (crabgrass; [3]) was 0 and the “Plant response rating, Crabgrass” value (crabgrass; [4]) was 0. The “Plant response rating, Crabgrass” value (crabgrass; [5]) was 6, the “Crabgrass plant response rating (0 to 10 scale)” value (crabgrass; Preemergence, Rate 125 g/ha) was 7 and the “Crabgrass plant response rating” value (crabgrass; [6]) was 9. For the same compound, the “Crabgrass plant response rating” value (crabgrass; [7]) was 10, the “Crabgrass plant response rating” value (crabgrass; [8]) was 0 and the “Plant response rating, Crabgrass” value (crabgrass; [9]) was 1. For the same compound, the “Plant response rating, Wheat” value (wheat; [3]) was 0, the “Plant response rating, Wheat” value (wheat; [4]) was 0 and the “Plant response rating, Wheat” value (wheat; [5]) was 0. The “Wheat plant response rating (0 to 10 scale)” value (wheat; Preemergence, Rate 125 g/ha) was 0, the “Wheat plant response rating” value (wheat; [6]) was 0 and the “Wheat plant response rating” value (wheat; [7]) was 0. For the same compound, the “Wheat plant response rating” value (wheat; [8]) was 0, the “Plant response rating, Wheat” value (wheat; [9]) was 0 and the “Plant response rating, Wild oats” value (wild oat; [3]) was 0. For the same compound, the “Plant response rating, Wild oats” value (wild oat; [4]) was 0, the “Plant response rating, Wild oats” value (wild oat; [5]) was 0 and the “Wild oats plant response rating (0 to 10 scale)” value (wild oat; Preemergence, Rate 125 g/ha) was 0. For the same compound, the “Wild oats plant response rating” value (wild oat; [6]) was 0, the “Wild oats plant response rating” value (wild oat; [7]) was 4 and the “Wild oats plant response rating” value (wild oat; [8]) was 0. The “Plant response rating, Wild oats” value (wild oat; [9]) was 0.

In the case of `Cc1ccccc1Cn1c(=O)on(C(=O)N(c2ccc(F)cc2F)C(C)C)c1=O` [Compound 87], the “Rice plant response rating” value (rice; [10]) was 0, the “Rice plant response rating” value (rice; Rate 31 g/ha, Postemergence section (flood test species), scale 0 to 10) was 0 and the “Rice plant response rating” value (rice; Rate 125 g/ha, Postemergence section (flood test species), scale 0 to 10, 0 no effect, 10 complete control) was 0. The “Rice plant response rating” value (rice; Rate 250 g/ha, headed Pre-emergence (flood test species), scale 0 to 10 (0 no effect, 10 complete control)) was 0, the “Plant response rating, Rice” value (rice; Rate 500 g/ha, headed Pre-emergence (flood test species), scale 0 to 10 (0 no effect, 10 complete control)) was 0 and the “Rice plant response rating” value (rice; Rate 1000 g/ha, Pre-emergence (as headed), scale 0 to 10) was 0. For the same compound, the “Rice plant response rating” value (rice; Rate 2000 g/ha, Pre-emergence (as headed), scale 0 to 10) was 0, the “Rice plant response rating” value (rice; flood test, listed under Postemergence, Rate 250 g/ha, scale 0 to 10, 0 no effect, 10 complete control) was 0 and the “Crabgrass plant response rating” value (crabgrass; [10]) was 2. The “Crabgrass plant response rating” value (crabgrass; [11]) was 5, the “Crabgrass plant response rating” value (crabgrass; [5]) was 5 and the “Plant response rating, Crabgrass” value (crabgrass; [12]) was 8. The “Plant response rating, Crabgrass” value (crabgrass; [6]) was 10, the “Crabgrass plant response rating” value (crabgrass; [13]) was 10 and the “Crabgrass plant response rating” value (crabgrass; [14]) was 3. The “Crabgrass plant response rating” value (crabgrass; [9]) was 9, the “Wheat plant response rating” value (wheat; [10]) was 0 and the “Wheat plant response rating” value (wheat; [11]) was 0. The “Wheat plant response rating” value (wheat; [5]) was 0, the “Plant response rating, Wheat” value (wheat; [12]) was 0 and the “Plant response rating, Wheat” value (wheat; [6]) was 0. For the same compound, the “Wheat plant response rating” value (wheat; [13]) was 0, the “Wheat plant response rating” value (wheat; [14]) was 0 and the “Wheat plant response rating” value (wheat; [9]) was 2. For the same compound, the “Wild oats plant response rating” value (wild oat; [10]) was 0, the “Wild oats plant response rating” value (wild oat; [11]) was 0 and the “Wild oats plant response rating” value (wild oat; [5]) was 0. The “Plant response rating, Wild oats” value (wild oat; [12]) was 0, the “Plant response rating, Wild oats” value (wild oat; [6]) was 4 and the “Wild oats plant response rating” value (wild oat; [13]) was 3. The “Wild oats plant response rating” value (wild oat; [14]) was 0 and the “Wild oats plant response rating” value (wild oat; [9]) was 3.

For `C=C(Cn1c(=O)on(C(=O)N(c2ccccc2)C(C)C)c1=O)c1cccc(Cl)n1` [Compound 605], the “Plant response rating, Rice (0 to 10 scale, 0 is no effect, 10 is complete control)” value (rice; [1]) was 0, the “Rice plant response rating (0 to 10 scale, 0 is no effect, 10 is complete control)” value (rice; [2]) was 0 and the “Rice plant response rating” value (rice; Rate 250 g/ha, Pre-emergence (flood test species), scale 0 to 10, 0 is no effect, 10 is complete control) was 0. For the same compound, the “Rice plant response rating” value (rice; Rate 500 g/ha, Pre-emergence section of Table B, 0 to 10 scale (0 no effect, 10 complete control)) was 0, the “Plant response rating, Crabgrass” value (crabgrass; [10]) was 0 and the “Plant response rating, Crabgrass” value (crabgrass; [15]) was 0. For the same compound, the “Crabgrass plant response rating” value (crabgrass; [16]) was 1, the “Plant response rating, Crabgrass” value (crabgrass; [17]) was 3 and the “Crabgrass plant response rating” value (crabgrass; [5]) was 0. The “Crabgrass plant response rating” value (crabgrass; [18]) was 3, the “Plant response rating, Crabgrass” value (crabgrass; [7]) was 10 and the “Plant response rating, Wheat” value (wheat; [10]) was 1. The “Plant response rating, Wheat” value (wheat; [15]) was 1, the “Wheat plant response rating” value (wheat; [16]) was 1 and the “Plant response rating, Wheat” value (wheat; [17]) was 2. The “Wheat plant response rating” value (wheat; [5]) was 0, the “Wheat plant response rating” value (wheat; [18]) was 0 and the “Plant response rating, Wheat” value (wheat; [7]) was 0. The “Plant response rating, Wild oats” value (wild oat; [10]) was 2, the “Plant response rating, Wild oats” value (wild oat; [15]) was 1 and the “Wild oats plant response rating” value (wild oat; [16]) was 1. The “Plant response rating, Wild oats” value (wild oat; [17]) was 2, the “Wild oats plant response rating” value (wild oat; [5]) was 0 and the “Wild oats plant response rating” value (wild oat; [18]) was 0. The “Plant response rating, Wild oats” value (wild oat; [7]) was 0.

In the case of `CC(C)c1noc(C(C)C)c1-n1c(=O)on(C(=O)N(c2ccc(F)cc2)C(C)C)c1=O` [Compound 135], the “Rice plant response rating” value (rice; Postemergence (flood test species), Rate 125 g/ha, scale of 0 to 10 where 0 is no effect and 10 is complete control) was 0, the “Rice plant response rating” value (rice; Rate 62 g/ha, Postemergence section, flood test species, scale of 0 to 10 where 0 is no effect and 10 is complete control) was 0 and the “Plant response rating, Rice” value (rice; Rate 250 g/ha, Postemergence (flood test), scale 0 to 10, 0 is no effect, 10 is complete control) was 0. The “Rice plant response rating” value (rice; Rate 500 g/ha, listed under Postemergence (flood test species), scale 0 to 10) was 0, the “Crabgrass plant response rating” value (crabgrass; [15]) was 0 and the “Crabgrass plant response rating” value (crabgrass; [5]) was 0. The “Crabgrass plant response rating (0 to 10 scale)” value (crabgrass; [19]) was 0, the “Crabgrass plant response rating” value (crabgrass; [20]) was 0 and the “Crabgrass plant response rating” value (crabgrass; [21]) was 4. The “Crabgrass plant response rating” value (crabgrass; [8]) was 0, the “Plant response rating, Crabgrass” value (crabgrass; [22]) was 0 and the “Wheat plant response rating” value (wheat; [15]) was 0. The “Wheat plant response rating” value (wheat; [5]) was 0, the “Wheat plant response rating (0 to 10 scale)” value (wheat; [19]) was 0 and the “Wheat plant response rating” value (wheat; [20]) was 0. The “Wheat plant response rating” value (wheat; [21]) was 0, the “Wheat plant response rating” value (wheat; [8]) was 0 and the “Plant response rating, Wheat” value (wheat; [22]) was 0. For the same compound, the “Wheat plant response rating” value (wheat; [23]) was 0, the “Wild oats plant response rating” value (wild oat; [15]) was 0 and the “Wild oats plant response rating” value (wild oat; [5]) was 0. For the same compound, the “Wild oats plant response rating (0 to 10 scale)” value (wild oat; [19]) was 0, the “Wild oats plant response rating” value (wild oat; [20]) was 0 and the “Wild oats plant response rating” value (wild oat; [21]) was 0. The “Wild oats plant response rating” value (wild oat; [8]) was 0, the “Plant response rating, Wild oats” value (wild oat; [22]) was 0 and the “Wild oats plant response rating” value (wild oat; [23]) was 0.
